Reference: publication PMC12024264, “Frog Skin Peptides Hylin-a1, AR-23, and RV-23: Promising Tools Against Carbapenem-Resistant Escherichia coli and Klebsiella pneumoniae Infections” (Antibiotics, 2025)
Where no end group is shown, it is not given here.

How the values were obtained:
[1] = system: E. coli ATCC 25992; details: for MBC: colonies' growth on agar plates after microdilution, N/D = not detected antibacterial activity; for MIC: microdilution (NCCLS), MH broth, 5 × 10^5 CFU/mL, 37 °C, 20 h, absorbance, 50 to 1.56 μM
Procedure: (§1) The three peptides were tested for their antibacterial activity. […] As described in the Materials and Methods section, the antibacterial effect of peptides was investigated using a microdilution assay. Each concentration of AMPs was inoculated with bacteria in 96-well plates and incubated at 37 °C for 20 h. After that, MIC values were determined by analyzing absorbance and expressed as a percentage of inhibition. MBC was assessed by observing the colonies’ growth on agar plates, as described elsewhere.
(§2) Each strain was grown in Mueller Hinton Broth (MH Broth), and 5 × 10^5 CFU/mL was used to evaluate antibacterial activity. Clinical carbapenem-resistant K. pneumoniae and E. coli isolates were collected at the AOU of Virology and Microbiology of the University of Campania “Luigi Vanvitelli”.
(§3) The antimicrobial activity of Hylin-a1, AR-23, and RV-23 was investigated using a microdilution assay as reported by the National Committee on Clinical Laboratory Standards (NCCLS) guidelines against a broad spectrum of Gram-negative bacteria. […] In 96-well, the standardized bacterial inoculum (5 × 10^5 colony forming units, CFU/mL) was inoculated together with AMPs and incubated at 37 °C for 20 h. After the time of incubation, optical density (OD) was measured at TECAN, and data were expressed as a percentage of inhibition. In addition to assessing the MIC values, the bactericidal effect was also studied as reported elsewhere.

[2] = system: K. pneumoniae ATCC 10031; details: for MBC: colonies' growth on agar plates after microdilution, N/D = not detected antibacterial activity; for MIC: microdilution (NCCLS), MH broth, 5 × 10^5 CFU/mL, 37 °C, 20 h, absorbance, 50 to 1.56 μM
Procedure: as §1, §2, §3

[3] = system: K. pneumoniae ATCC 10031; test: Time-kill assay; format: cell-based, Klebsiella pneumoniae
Procedure: (§4) This in vitro method allows for assessing the kinetics of bacterial killing by peptides over time. […] Specifically, at each time point, 50 μL aliquots of the bacterial–peptide mixtures were collected and plated on agar (see Materials and Methods for further details). Following incubation, colony-forming units (CFUs) were counted and the killing rate of each peptide concentration was calculated (Figure 2).
(§5) Figure 2 Evaluation of the kinetic-killing effect of Hylin-a1, AR-23, and RV-23 against K. pneumoniae and E. coli. […] Untreated bacteria was used as control negative (CTR- in black).
(§6) Using the same conditions as the MIC assay, a time–kill test was performed to monitor bacterial growth over time. […] Finally, bacterial colonies were counted, and the CFU/mL was calculated.

[4] = system: E. coli ATCC 25992; test: Time-kill assay; format: cell-based, Escherichia coli
Procedure: as §4, §5, §6

[5] = system: E. coli ATCC 25992; test: Biofilm initial cell attachment assay; format: cell-based, Escherichia coli; details: 2 h; for concentration of total reduction in biofilm attachment (antibiofilm MIC): initial cell attachment, 37 °C, peptides 50-1.56 μM, absorbance 570 nm
Procedure: We also investigated the ability of peptides to interfere with biofilm using three different assays (refer to the Section 4) against K. pneumonia and E. coli.
Figure 3 The effect of Hylin-a1, AR-23, and RV-23 on the initial cell attachment of biofilm formation. […] Statistical analysis was performed by One-way ANOVA followed by Dunnett’s multiple comparisons test.
The anti-biofilm activity of peptides was evaluated against E. coli and K. pneumoniae ATCC strains. Bacterial cultures were grown overnight, then diluted to an OD600 of 0.1 in MH broth supplemented with 1% (v/v) glucose. A 100 μL aliquot of the bacterial suspension was combined with an equal volume of peptides at non-cytotoxic concentrations in a 96-well plate and incubated at 37 °C for 2 h. Following incubation, non-adherent planktonic cells were removed by washing with phosphate-buffered saline (PBS, Microtech), and adherent cells were incubated with MTT solution for 3 h at 37 °C. Additionally, adherent cells were collected, resuspended in PBS, and plated on agar for viable cell counting. Serial dilutions were performed for each peptide, and CFU/mL were determined after 20 h of incubation at 37 °C (Figure S2). Absorbance was measured at 570 nm to evaluate adhesion percentage.

[6] = Serum stability assay; format: in vitro ADME, bovine; details: 10% FBS
Procedure: The susceptibility of Hylin-a1, AR-23, and RV-23 to proteolytic degradation in serum was evaluated, following the protocol reported in Section 4.3.
Figure 6 AMP stability in serum. Stability profiles of Hylin-a1 (red line), AR-23 (gray line), and RV-23 (black line) are reported. All stability tests were performed at least in triplicate. LC-MS analyses were performed using an Agilent 1260 Infinity II LC/MSD system (Milan, Italy). The percentages of intact peptides after different time points of incubation in serum were determined by integrating RP-HPLC peaks from the chromatograms recorded at a wavelength of 210 nm. The test was performed in triplicate, and the data are presented as mean values, with error bars representing standard deviations.
Peptides were mixed with 10% FBS at a final concentration of 0.2 mg/mL and incubated in a water bath at 37 °C. […] Then, the mixture was diluted with 0.1% TFA in H2O (1:1). Samples were characterized using LC-MS on a C18 Aeris Peptide column (100 × 2.1 mm), applying a linear gradient from 5 to 80% solvent B (0.1% TFA in CH3CN) over solvent A (0.1% TFA in water) in 15 min at a flow rate of 0.2 mL/min. All stability tests were performed at least in triplicate. LC-MS analyses were performed using an Agilent 1260 Infinity II LC/MSD system (Milan, Italy).

[7] = system: K. pneumoniae 311; details: carbapenemase OXA-48 (class D), rectal swab, N/D = no antibacterial activity detected
Procedure: as §2, §3

[8] = system: E. coli; details: against E. coli; ref 63 (Zhang et al.); cited from earlier work
Source text: The activity of AR-23 and RV-23 against Gram-negative bacteria has been briefly described in previous studies. Zhang et al. evaluated the antibacterial effects of both peptides against E. coli. […] The authors attributed this enhanced activity to RV-23’s lower hydrophobicity and higher hydrophobic moment, factors strongly associated with reduced cytotoxicity and greater selectivity compared to AR-23. In contrast, the antibacteri ...

[9] = system: K. pneumoniae; test: Checkerboard assay with meropenem; details: checkerboard, 20 h, OD600

Row | Substance | MBC [1] [µM] | MIC [1] [µM] | MBC [2] [µM] | MIC [2] [µM] | bacterial killing in time-kill assay [3] | bacterial killing in time-kill assay [4] | reduction of biofilm (initial attachment) ([5]; at 50 μM) | concentration of total reduction in biofilm attachment (antibiofilm MIC) [5] [µM] | remaining at 16 h ([6]; serum, after 16 h, 0.2 mg/mL, 37 °C, RP-HPLC peaks at 210 nm, mean of triplicate, read-out: intact peptide remaining in solution) [%] | MBC [7] [µM] | MIC ([7]; microdilution, 37 °C, 20 h) [µM] | time to significant reduction in bacterial viability / bactericidal effect [3] [h] | time to significant reduction in bacterial viability / bactericidal effect [4] [h] | percentage of intact fragments, almost constant up to 24 h ([6]; 0.2 mg/mL, 37 °C, RP-HPLC peaks at 210 nm, mean of triplicate, after the first 2 h up to 24 h) | half-life ([6]; serum, peptide 0.2 mg/mL, 37 °C water bath, ethanol precipitation, LC-MS, RP-HPLC peak integration at 210 nm, at least triplicate) [h] | MIC [8] [µM] | MIC of peptide in combination with meropenem [9] [µM]
1 | IFGAILPLALGALKNLIK-NH2 [Hylin-a1] | 25 | 25 | 6.25 | 6.25 | kills bacteria | kills bacteria | 80–100% | 50 | 60 |  |  |  |  |  |  |  | 
2 | RIGVLLARLPKLFSLFKLMGKKV-NH2 [RV-23] | 12.5 | 12.5 | 12.5 | 6.25 |  |  |  | 12.5 |  | 50 | 50 | ≤ 2 | ≤ 2 | around 30% | < 2 | 3.33 | 3.125
